Reference: patent US5482975A, “Adenosine diphosphoribose polymerase binding nitroso aromatic compounds useful as retroviral inactivating agents, anti-retroviral agents and anti-tumor agents” (priority 1993, dated 1996)
Entries after “also recorded” stand apart in the source; their conditions may differ.

Key:
L1210 murine leukemia = L1210 murine leukemia in vivo; parameters: species or system BDF mice; conditions: 2 mg/kg i.p. twice a day, 6 consecutive days
[1] = target: T1, Zn(HIV1-F1) oligonucleotide complex (Human immunodeficiency virus type 1 lw12.3 isolate, UniProt Q70622); assay: NMR study of Zn(HIV1-F1) nucleic acid binding; format: biochemical, HIV-1; conditions: two equivalents NOBA
T1 construct: NC cut from Gag polyprotein (Pr55Gag)
Source text: The downfield regions of the spectra show the signals of the aromatic and ribose H1' protons, and the upfield region contain signals of the methyl group protons. Dramatic spectral changes occur upon addition of oligonucleotide to Zn(HIV1-F1), including large upfield shifts of the Phe 2 and Ile 10 side chain=n signals and a downfield shifting and broadening of the guanosine-H8 proton signal (second from the top).
The reaction mechanism, schematically illustrated in FIG. 12, is consistent with the result of NMR analysis in FIGS. 10 and 11. The reaction mechanism proposed in FIG. 12 is a useful model but is not intended to limit the scope of the claimed invention.

[2] = system: human leukemia cell lines (855-2, H9, HL-60, K562); assay: [3H] thymidine uptake, human leukemia cell lines together; format: cell-based; conditions: 10 μM; each of the cell lines tested
HIV-1 (LAV strain) = assay: HIV-1 inactivation assay in PBL cultures (FIG. 13A, B); format: cell-based; conditions: NOBA versus NOBP
Procedure: The assay was performed as described in FIG. 13A except that the 30 min. preincubation of virus with NOBA was carried out at 0>, 22° or 37° C.
An HIV-1 stock having an infectivity titer of 100,000 TCID50 was incubated for 30 min. at 22° C. with either of the drugs. Control HIV samples, containing no drugs, were incubated in the same manner. […] At the end of this incubation cultures were assayed for productive infection by an immunoassay for HIV-1 antigens and by reverse transcriptase as described in McDougal, et al., J. Immunol Methods 76:171-183 (1985). Virus titers were expressed as percentile values (percent infected cultures) compared to the controls, containing HIV dilutions which were not preincubated with the C-nitroso drugs. In a separate series of experiments, HIV-1 dilutions and C-nitroso drugs (see upper abscissa) were not preincubated but were added simultaneously to lymphocytes in exactly the same concentrations as described previously (i.e., following preincubation) and viral growth monitored 9 days later. […] Chem. Soc. 111:395-396 (1989), South, et al., Biochem Pharm. 40:123-129 (1990), Summers, et al., Biochemistry 29:329-340 (1990), the inhibition of HIV-1 propagation was profound when C-nitroso drugs were preincubated with HIV-1, whereas only negligible effect on HIV-1 growth occurred when both drugs and virus were added simultaneously. […]

Human Neutrophils = assay: superoxide generation by human neutrophils; conditions: 10 μM

NC(=O)c1cccc(N=O)c1 [NOBA, 3-nitrosobenzamide]
in vivo chemotherapeutic response (L1210 murine leukemia): highly significant in vivo chemotherapeutic response | toxic effects in mice (L1210 murine leukemia): no toxic effects | effect on zinc finger nucleic acid complex [1]: ejection of zinc with concomitant dissociation of the zinc finger nucleic acid complex; also recorded: NOBA-induced zinc ejection leads to loss of high-affinity nucleic acid binding function | inhibition of 3H-thymidine uptake [2]: powerfully inhibited | relative depression of HIV-1 propagation (HIV-1 (LAV strain)): greater depression of HIV-1 propagation | reduction in superoxide generation (Human Neutrophils): Only minor reductions | Generation of Superoxide by Human Neutrophils (Human Neutrophils; mean + S.D., n = 11, PMN + PMA): 44.4 ± 10.0 nmol 02^- /hr/10^5 cells
